# Experimental data taken from US20240199677A1, “GLYCOSYLTRANSFERASE INHIBITORS” (CALIFORNIA INSTITUTE OF TECHNOLOGY, priority 2018, published 2024).
# Experiments:
# Hemolysis, sheep blood = assay type: cell-based; settings: sheep, sheep blood
# sheep blood = assay: Hemolysis, sheep blood; assay type: cell-based
# L12210 = assay: Cytotoxicity MTT assay, L12210; assay type: cell-based; settings: read-out: Cytotoxicity IC50 L12210
# Experimental: (§1) Selected molecules were tested for cytotoxicity (IC50) in cancer and healthy cells via a MTT colorimetric assay.
# (§2) Each cell was cultured in recommended medium by ATCC, and the IC50 data were obtained with each cell line.
# [1] = Cytotoxicity MTT assay, HepG2; assay type: cell-based; settings: human
# AsPc-1 = assay: Cytotoxicity MTT assay, AsPc-1; assay type: cell-based; settings: Homo sapiens, ASPC1; read-out: Cytotoxicity IC50 AsPc-1
# Experimental: as §1, §2
# HCT 116 = assay: Cytotoxicity MTT assay, HCT 116; assay type: cell-based; settings: Homo sapiens, HCT-116, read-out: Cytotoxicity IC50 HCT 116
# Experimental: as §1, §2
# C. perfringens = assay type: cell-based; settings: FIG. 4
# Water solubility = assay type: physicochemical
# [2] = Cytotoxicity MTT assay, Vero cells; assay type: cell-based, monkey; settings: monkey
# Experimental: (§3) Cytotoxicity Assays. Cytotoxicity assays were performed using Vero monkey kidney (ATCC CCL-81) and HepG2 human hepatoblastoma cell (ATCC HB-8065) lines. Vero or HepG2 cells were cultured in 75 cm^2 flasks and transferred to 96-well cell culture plates using ATCC-formulated Eagle's minimum essential medium containing 10% FBS, penicillin, and streptomycin. Serially diluted aliquots of each test compound at concentrations ranging from 0.78-200 μg/mL were added to the cells. […] The plates were incubated and cytotoxic effects were determined via the MTT assay.
# as §1
# (§4) Cytotoxicity Assays. For Vero cells: Vero cell was cultured in Complete eagle's minimum essential growth medium (EMEM) containing L-glutamine, sodium pyruvate, minimum essential amino acids, penicillin-streptomycin and 10% fetal bovine serum. Inoculating number of cells were 400,000 cells/mL and a final 40,000 cells/well. After 72 h of exposure of molecules to this cell line at concentrations ranging from 0.78 to 200 μg/mL, the culture medium was changed to complete EMEM without phenol red before addition of yellow tetrazolium dye; MTT. Viability was assessed on the basis of cellular conversion of MTT into a purple formazan product. The absorbance of the colored formazan product was measured at 570 nm by BioTek Synergy HT Spectrophotometer. Linearity of the MTT response to the cell number was determined.
# Vero cells = assay: Cytotoxicity MTT assay, Vero cells; assay type: cell-based, monkey; settings: Primates, Vero; Table 2; read-out: Vero cells IC50
# Experimental: as §3, §1, §4
# SK-OV-3 = assay: Cytotoxicity MTT assay, SK-OV-3; assay type: cell-based; settings: Homo sapiens, SK-OV-3; read-out: Cytotoxicity IC50 SK-OV-3
# Experimental: as §1, §2
# Caco-2 = assay: Cytotoxicity MTT assay, Caco-2; assay type: cell-based; settings: Homo sapiens, Caco-2; read-out: Cytotoxicity IC50 Caco-2
# Experimental: as §1, §2
# Panc-1 cells [3] = assay: Boyden Chamber migration assay, Panc-1; assay type: cell-based; settings: FIG. 7, versus Gemcitabine, Taxol, Tunicamycin
# Panc-1 = assay: Cytotoxicity MTT assay, Panc-1; assay type: cell-based; settings: Homo sapiens, PANC-1; read-out: Cytotoxicity IC50 Panc-1
# Experimental: as §1, §2
# C. difficile spores = assay: Spore viability testing; assay type: cell-based; settings: x2 MIC, 24 hours
# B. subtilis = assay: Antibacterial activity (FIG. 4), B. subtilis; assay type: cell-based
# [4] = system: N-glycosylation of β-catenin; assay: Western blot, N-glycosylation of β-catenin (FIG. 6); assay type: cell-based; settings: concentrations as low as
# DPAGT1 = DPAGT1 (Homo sapiens (Human), UniProt Q9H3H5); assay: DPAGT1 inhibition (FIG. 6); assay type: biochemical
# Chain of DPAGT1 (Q9H3H5 whole entry, looked up): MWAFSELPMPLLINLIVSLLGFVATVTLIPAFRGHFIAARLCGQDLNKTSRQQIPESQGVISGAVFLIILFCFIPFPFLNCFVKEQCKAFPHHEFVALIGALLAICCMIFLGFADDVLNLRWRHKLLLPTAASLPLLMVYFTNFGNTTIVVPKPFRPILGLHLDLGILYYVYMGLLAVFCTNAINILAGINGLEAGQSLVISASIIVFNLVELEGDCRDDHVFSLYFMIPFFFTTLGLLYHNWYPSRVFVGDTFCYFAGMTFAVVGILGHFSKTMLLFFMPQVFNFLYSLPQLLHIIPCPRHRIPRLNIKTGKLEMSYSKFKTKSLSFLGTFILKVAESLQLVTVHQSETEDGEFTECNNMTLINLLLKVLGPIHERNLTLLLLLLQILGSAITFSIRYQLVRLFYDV
# MDA-MB-435S = assay: Cytotoxicity MTT assay, MDA-MB-435S; assay type: cell-based; settings: Homo sapiens, MDA-MB-435S; read-out: Cytotoxicity IC50 MDA-MB-435S
# Experimental: as §1, §2
# AsPc-1 cells [5] = assay: Scratch (wound healing) assay, AsPc-1; assay type: cell-based; settings: FIG. 9, versus Gemcitabine
# HPAF-II = assay: Cytotoxicity MTT assay, HPAF-II; assay type: cell-based; settings: Homo sapiens, HPAF-II; read-out: Cytotoxicity IC50 HPAF-II
# Experimental: as §1, §2
# AsPc-1 cells [6] = assay: Synergistic assay (checkerboard), 11 and Paclitaxel; assay type: cell-based
# Experimental: The FIC index was calculated according to the following equation. ΣFIC=FICA+FICB=CA/MICA+CB/MICB where MICA and MICB are MIC of drugs A and B, CA and CB are the concentrations of drugs A and B used in combination. In these interaction studies, ΣFIC of less than 0.5 represents synergistic activity.
# C. difficile ATCC43596 = assay: Minimum inhibitory concentration assay
# LoVo = assay: Cytotoxicity MTT assay, LoVo; assay type: cell-based; settings: Homo sapiens, LoVo; read-out: Cytotoxicity IC50 LoVo
# Experimental: as §1, §2
# Panc-1 cells [7] = assay: Cell viability assay (FIG. 5), Panc-1; assay type: cell-based; settings: after about 3 days; 0.44 μM, 1.77 μM, and 7.08 μM
# Experimental: The cytotoxic activity of 11 against AsPc-1 and Panc-1 cells was also measured through cell viability assays (FIG. 5). […] Similarly, the percentage of viable Panc-1 cells was near-zero after about 3 days in the presence of 11 (0.44 μM, 1.77 μM, and 7.08 μM).
smiles,measurement,setting,value
NC[C@H]1O[C@@H](O[C@H]([C@H]2O[C@@H](n3ccc(=O)[nH]c3=O)[C@H](O)[C@@H]2O)[C@H](NCCCC(=O)NCc2ccc(N3CCC(Oc4ccc(C(F)(F)F)cc4)CC3)cc2)C(N)=O)[C@H](O)[C@@H]1O [Compound 11],IC50,"Hemolysis, sheep blood",206 µM
same,IC50,sheep blood,206 µM
same,IC50,L12210,> 100 µM
same,IC50,[1],> 60 µM
same,IC50,AsPc-1,0.95 µM
same,IC50,HCT 116,3.54 µM
same,Antibacterial activity against C. perfringens,C. perfringens,displayed antibacterial activity
same,"Water solubility, times greater than 10",Water solubility; relative to 10,200 times
same,solubility,Water solubility; water,22 mg/mL
same,IC50 at 72 h,[2],> 65 µM
same,IC50,Vero cells,56.8 µM
same,IC50,SK-OV-3,2.85 µM
same,IC50,Caco-2,> 60 µM
same,Panc-1 migratory cells,Panc-1 cells [3],"fewer Panc-1 migratory cells than Gemcitabine, Taxol, and Tunicamycin"
same,IC50,Panc-1,< 0.098 µM
same,Effect on viability of C. difficile spores (CFU),C. difficile spores,caused loss of viability of C. difficile spores
same,Antibacterial activity against B. subtilis,B. subtilis,displayed antibacterial activity
same,Lowest concentration inhibiting N-glycosylation of β-catenin,[4],0.39 nM
same,IC50,DPAGT1,0.26 µM
same,IC50,MDA-MB-435S,7.09 µM
same,"AsPc-1 cell migration, scratch assay",AsPc-1 cells [5],less AsPc-1 cell migration than Gemcitabine
same,IC50,HPAF-II,< 0.098 µM
same,Σ FIC,AsPc-1 cells [6]; Entry 1: A 11 CA 14.2 nM + B Paclitaxel CB 0.4 nM,0.224
same,Σ FIC,AsPc-1 cells [6]; Entry 2: A 11 CA 14 nM + B Paclitaxel CB 0.88 nM,0.16
same,Σ FIC,AsPc-1 cells [6]; Entry 3: A 11 CA 14 nM + B Paclitaxel CB 7 nM,0.27
same,Σ FIC,AsPc-1 cells [6]; Entry 4: A 11 CA 220 nM + B Paclitaxel CB 40 nM,0.224
same,Σ FIC,AsPc-1 cells [6]; Entry 5: A 11 CA 110 nM + B Paclitaxel CB 88 nM,0.114
same,IC50,"AsPc-1 cells [6]; Homo sapiens, ASPC1, 11 alone, AsPc-1 cells, read-out: IC50 A",0.982 µM
same,Effect of combination of 11 and Taxol,AsPc-1 cells [6]; all five combinations,synergistic effect
same,Anti-C. difficile activity,C. difficile ATCC43596,display anti-C. difficile activity
same,MIC,"C. difficile ATCC43596; Clostridioides difficile, ATCC43596, 48 h, read-out: C. difficile ATCC43596 MIC",3.25 µg/mL
same,Antibacterial activity against C. difficile,C. difficile ATCC43596; FIG. 4,displayed antibacterial activity
same,IC50,LoVo,0.22 µM
same,Percentage of viable Panc-1 cells,Panc-1 cells [7],near-zero
